Laboratory results taken from ChEMBL document CHEMBL4152286, “3'-O-Substituted 5-(perylen-3-ylethynyl)-2'-deoxyuridines as tick-borne encephalitis virus reproduction inhibitors” (Eur J Med Chem, 2018).
In brackets after ≈: the same amount, converted by molar mass.

Legend:
[1] = Solubility of compound in 15% DMSO by UV-Vis spectrophotometric method; assay type: physicochemical
[2] = Solubility of compound in 5% DMSO by UV-Vis spectrophotometric method; assay type: physicochemical
[3] = Cytotoxicity against PEK cells after 7 days by microscopic method; assay type: cell-based, Sus scrofa; settings: pig
[4] = Cytotoxicity against PEK cells after 24 hrs by microscopic method; assay type: cell-based, Sus scrofa; settings: pig
[5] = tested on: Tick-borne encephalitis virus; assay: Antiviral activity against TBEV Absettarov infected in PEK cells assessed as plaque reduction preincubated for 1 hr followed by overlaying with 1.26% methylcellulose and measured after 6 days by gentian violet staining-based assay; assay type: functional, organism-based

Compound | solubility [1] | solubility [2] | CC50 at 168 h [3] | CC50 at 24 h [4] | EC50 [5]
O=c1[nH]c(=O)n([C@H]2C[C@H](O)[C@@H](CO)O2)cc1C#Cc1ccc2c3cccc4cccc(c5cccc1c52)c43 | 7.8 µM (≈ 3.92 µg/mL) |  |  |  | 
[N-]=[N+]=NCO[C@H]1C[C@H](n2cc(C#Cc3ccc4c5cccc6cccc(c7cccc3c74)c65)c(=O)[nH]c2=O)O[C@@H]1CO |  | 680 µM (≈ 379 µg/mL) | 35 µM | > 50 µM | 0.0054 µM
O=c1[nH]c(=O)n([C@H]2C[C@H](OCn3cc(CCO)nn3)[C@@H](CO)O2)cc1C#Cc1ccc2c3cccc4cccc(c5cccc1c52)c43 |  |  | > 50 µM | > 50 µM | 0.05 µM
O=c1[nH]c(=O)n([C@H]2C[C@H](OCn3cc(CCCCO)nn3)[C@@H](CO)O2)cc1C#Cc1ccc2c3cccc4cccc(c5cccc1c52)c43 |  |  | > 50 µM | > 50 µM | 0.023 µM
O=c1[nH]c(=O)n([C@H]2C[C@H](OCn3cc(CO)nn3)[C@@H](CO)O2)cc1C#Cc1ccc2c3cccc4cccc(c5cccc1c52)c43 |  |  | > 50 µM | > 50 µM | 0.03 µM
O=c1[nH]c(=O)n([C@H]2C[C@H](OCn3cc(CCCO)nn3)[C@@H](CO)O2)cc1C#Cc1ccc2c3cccc4cccc(c5cccc1c52)c43 |  |  | > 50 µM | > 50 µM | 0.037 µM
CSCO[C@H]1C[C@H](n2cc(C#Cc3ccc4c5cccc6cccc(c7cccc3c74)c65)c(=O)[nH]c2=O)O[C@@H]1CO |  | 150 µM (≈ 84.4 µg/mL) | > 50 µM | > 50 µM | 0.0077 µM
